Tests used:
Abl(h) = Abl(h) (Homo sapiens, UniProt P00519); assay: KinaseProfiler kinase assay; assay type: biochemical
Aurora-A(h) = molecular target: T1, Aurora-A(h) (Homo sapiens, UniProt O14965); assay: KinaseProfiler kinase assay; assay type: biochemical; settings: for inhibition at 1 µM: read-out: % Inhibition @1 μM Auroro-A
T1 sequence (O14965 1-403): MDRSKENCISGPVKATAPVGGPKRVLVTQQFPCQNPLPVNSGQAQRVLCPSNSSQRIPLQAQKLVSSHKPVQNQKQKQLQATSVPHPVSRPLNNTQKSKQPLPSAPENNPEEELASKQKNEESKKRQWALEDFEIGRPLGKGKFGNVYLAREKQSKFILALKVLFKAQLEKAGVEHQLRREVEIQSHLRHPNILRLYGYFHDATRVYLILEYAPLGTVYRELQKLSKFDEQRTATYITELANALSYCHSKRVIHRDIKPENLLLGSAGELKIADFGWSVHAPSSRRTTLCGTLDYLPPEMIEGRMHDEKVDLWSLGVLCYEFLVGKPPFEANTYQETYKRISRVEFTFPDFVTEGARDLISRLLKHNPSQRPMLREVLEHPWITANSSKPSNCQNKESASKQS
Procedure: (§1) This example tests the inhibitory properties of representative compounds of the invention in c-Src kinase, Aurora-A kinase, Flt3 kinase, Ret kinase and TrkA Kinase assays (see, Daniele Fancelli et al, J. Med. Chem., 2006, 49 (24), pp 7247-7251). The KinaseProfiler™ Service Assay Protocols (Millipore) was used to test the kinase inhibiting activity of novel compounds from this invention. To do this, the buffer composition was as: 20 mM MOPS, 1 mM EDTA, 0.01% Brij-35, 5% Glycerol, 0.1% β-mercaptoethanol, 1 mg/mL BSA. Test compounds were initially dissolved in DMSO at the desired concentration, then serially diluted to the kinase assay buffer. In a final reaction volume of 25 μL, Aurora-A(h) (5-10 mU) is incubated with 8 mM MOPS pH 7.0, 0.2 mM EDTA, 200 μM LRRASLG (Kemptide), 10 mM MgAcetate and [γ^33P-ATP]. The reaction was initiated by the addition of the MgATP mix. After incubation for 40 minute at room temperature, the reaction was stopped by addition of 5 μL of a 3% phosphoric acid solution. 10 μL of the reaction was then spotted onto a P30 filtermat and washed three times for 5 minutes in 50 mM phosphoric acid and once in methanol prior to drying and scintillation counting. Wells containing substrate but no kinase and wells containing a phosphopeptide control were used to set 0% and 100% phosphorylation value, respectively.
(§2) The Kinase Hotspot℠ kinase assay was also used to test the compounds for IC50 or % inhibitions (Reaction Biology Corp.). Inhibitory IC50 values were determined by titration of compound at the optimal kinase concentration (Kinase EC50).

Flt3(h) = molecular target: T2, Flt3(h) (Homo sapiens, UniProt P36888); assay: KinaseProfiler kinase assay; assay type: biochemical
T2 sequence (P36888 27-993): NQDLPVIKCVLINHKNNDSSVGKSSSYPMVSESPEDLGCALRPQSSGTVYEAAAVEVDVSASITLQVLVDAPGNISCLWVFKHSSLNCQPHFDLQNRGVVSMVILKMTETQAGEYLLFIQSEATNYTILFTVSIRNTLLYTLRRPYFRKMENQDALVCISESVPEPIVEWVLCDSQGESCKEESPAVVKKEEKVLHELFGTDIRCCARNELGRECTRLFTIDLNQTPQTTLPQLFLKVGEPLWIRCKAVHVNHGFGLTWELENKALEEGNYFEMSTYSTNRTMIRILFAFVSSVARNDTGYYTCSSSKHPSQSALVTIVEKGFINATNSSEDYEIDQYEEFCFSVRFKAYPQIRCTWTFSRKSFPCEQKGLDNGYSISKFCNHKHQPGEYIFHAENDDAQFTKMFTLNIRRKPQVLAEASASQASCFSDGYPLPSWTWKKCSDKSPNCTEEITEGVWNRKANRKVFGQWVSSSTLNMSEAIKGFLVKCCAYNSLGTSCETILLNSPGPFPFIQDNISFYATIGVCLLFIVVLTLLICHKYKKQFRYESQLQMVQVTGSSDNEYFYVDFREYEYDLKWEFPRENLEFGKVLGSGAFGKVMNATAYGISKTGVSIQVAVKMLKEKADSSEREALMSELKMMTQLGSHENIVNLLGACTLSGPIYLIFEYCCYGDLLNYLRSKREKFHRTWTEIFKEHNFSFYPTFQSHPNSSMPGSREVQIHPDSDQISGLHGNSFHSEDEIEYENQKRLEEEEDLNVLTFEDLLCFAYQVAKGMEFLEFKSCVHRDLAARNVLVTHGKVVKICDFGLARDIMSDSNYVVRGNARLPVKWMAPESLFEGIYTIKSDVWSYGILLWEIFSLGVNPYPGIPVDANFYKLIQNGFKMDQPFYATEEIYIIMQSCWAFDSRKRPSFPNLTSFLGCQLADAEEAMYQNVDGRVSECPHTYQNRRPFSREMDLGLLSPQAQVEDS
Procedure: as §1, §2

Ret(h) = Ret(h) (Homo sapiens, UniProt P07949); assay: KinaseProfiler kinase assay; assay type: biochemical
Procedure: as §1, §2

cSRC(h) = cSRC(h) (Homo sapiens, UniProt P12931); assay: KinaseProfiler kinase assay; assay type: biochemical
Procedure: as §1, §2

KDR(h) = KDR(h) (Homo sapiens, UniProt P35968); assay: KinaseProfiler kinase assay; assay type: biochemical
K562 = assay: CellTiterBlue cell growth inhibition; assay type: cell-based; settings: Homo sapiens; K562, 72 hours
Procedure: (§3) This example illustrated the proliferating cell growth inhibition of selected compounds from this invention. To do this, the cells were seeded into fresh Iscove's growth medium at a density of 0.4e6 cells/ml and grown in log phase for 24 hr. Cells were then resuspended in their fresh respective growth media at 0.1e^6 cells/ml and plated into 384 well black, clear-bottom microplates at 36 ul/well. Test compounds and controls were initially dissolved in DMSO at the desired concentration, then serially diluted to the assay buffer. These solutions were added and cells were incubated for 72 hours at 37° C. CellTiterBlue (Promega cat# G7572) was added on the Beckman FX. Plates were returned to the 37° C. CO2 incubator for 4 hr and then fluorescence was determined on the Victor plate reader. Data were processed using Microsoft Excel, and GI50 values were generated using Prism (GraphPad Software, San Diego, Calif.).

KU812 = assay: CellTiterBlue cell growth inhibition; assay type: cell-based; settings: Homo sapiens; KU812, 72 hours
Procedure: as §3

MV4.11 = assay: CellTiterBlue cell growth inhibition; assay type: cell-based; settings: Homo sapiens; MV4.11, 72 hours
Procedure: as §3

RS4.11 = assay: CellTiterBlue cell growth inhibition; assay type: cell-based; settings: Homo sapiens; RS4.11, 72 hours
Procedure: as §3

[1] = test system: human MIAPaCa-2 pancreatic carcinoma xenograft; assay: Pancreatic carcinoma xenograft in athymic nude mice; assay type: in vivo, mouse; settings: MIAPaCa-2 xenograft, nude mice, single agent
Procedure: The objective of the third study was to evaluate antitumor activities of novel multiple-kinase inhibitor NTW-3475 in human MIAPaCa-2 pancreatic carcinoma xenograft in athymic nude-Faxn1 mice.
Four animals were randomly assigned to study groups. Each animal was weighed, and then injected subcutaneously in the left and right flank area with 0.1 ml of 5.0×10^7 MIAPaCa-2 cells per mL.
Each test or control animal was on a 5-day on, two-day off for two cycles treatment schedule with negative control vehicle, positive control Abraxane at 20 mg/kg or 25, 50 mg/kg of NTW-3475. Tumor growth was measured with a digital hand held caliper twice weekly (once tumor emerges) prior to the first dosing and then two to three times weekly until euthanized.
The objective of the third study was to evaluate antitumor activities of novel multiple-kinase inhibitor Compound 10, 11, 12, 53, 68, 82, 83, 88, and 90 in human MIAPaCa-2 pancreatic carcinoma xenograft in athymic nude-Faxn1 mice.
Each test or control animal was on a 5-day on, two-day off for three cycles treatment schedule with negative control vehicle or 40 mg/kg of Compound 10, 11, 12, 53, 68, 82, 83, 88 and 90. Tumor growth was measured with a digital hand held caliper twice weekly (once tumor emerges) prior to the first dosing and then two to three times weekly until euthanized.

Abl(h), sequence (P00519 whole entry): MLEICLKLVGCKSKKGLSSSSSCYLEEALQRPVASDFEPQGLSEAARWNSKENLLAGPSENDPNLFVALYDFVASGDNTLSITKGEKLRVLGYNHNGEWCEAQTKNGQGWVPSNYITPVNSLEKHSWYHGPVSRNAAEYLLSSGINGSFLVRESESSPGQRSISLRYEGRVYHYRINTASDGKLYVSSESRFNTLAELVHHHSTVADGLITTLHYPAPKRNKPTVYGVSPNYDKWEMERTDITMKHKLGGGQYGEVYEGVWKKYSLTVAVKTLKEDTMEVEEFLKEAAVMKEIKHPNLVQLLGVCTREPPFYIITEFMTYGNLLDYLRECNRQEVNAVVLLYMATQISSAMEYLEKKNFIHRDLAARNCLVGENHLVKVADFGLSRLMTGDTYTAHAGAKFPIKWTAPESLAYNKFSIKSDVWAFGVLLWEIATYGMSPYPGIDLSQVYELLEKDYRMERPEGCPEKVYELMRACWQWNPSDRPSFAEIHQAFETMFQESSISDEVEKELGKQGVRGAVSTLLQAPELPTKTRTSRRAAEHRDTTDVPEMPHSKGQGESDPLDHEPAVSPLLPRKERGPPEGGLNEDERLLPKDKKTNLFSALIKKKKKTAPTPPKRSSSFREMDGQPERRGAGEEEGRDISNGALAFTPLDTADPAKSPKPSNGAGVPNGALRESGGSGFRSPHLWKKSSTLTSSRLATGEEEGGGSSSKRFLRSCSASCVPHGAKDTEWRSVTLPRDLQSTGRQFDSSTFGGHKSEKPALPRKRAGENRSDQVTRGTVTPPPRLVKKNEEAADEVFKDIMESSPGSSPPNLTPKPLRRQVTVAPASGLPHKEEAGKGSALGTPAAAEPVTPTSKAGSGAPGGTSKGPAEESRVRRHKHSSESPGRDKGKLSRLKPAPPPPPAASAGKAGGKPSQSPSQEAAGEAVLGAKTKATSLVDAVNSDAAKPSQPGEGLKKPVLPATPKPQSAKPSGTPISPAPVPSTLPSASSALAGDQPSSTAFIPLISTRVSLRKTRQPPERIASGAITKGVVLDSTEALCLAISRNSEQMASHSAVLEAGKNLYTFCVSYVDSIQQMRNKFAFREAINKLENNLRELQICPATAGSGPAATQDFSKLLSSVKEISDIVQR
cSRC(h), sequence (P12931 whole entry): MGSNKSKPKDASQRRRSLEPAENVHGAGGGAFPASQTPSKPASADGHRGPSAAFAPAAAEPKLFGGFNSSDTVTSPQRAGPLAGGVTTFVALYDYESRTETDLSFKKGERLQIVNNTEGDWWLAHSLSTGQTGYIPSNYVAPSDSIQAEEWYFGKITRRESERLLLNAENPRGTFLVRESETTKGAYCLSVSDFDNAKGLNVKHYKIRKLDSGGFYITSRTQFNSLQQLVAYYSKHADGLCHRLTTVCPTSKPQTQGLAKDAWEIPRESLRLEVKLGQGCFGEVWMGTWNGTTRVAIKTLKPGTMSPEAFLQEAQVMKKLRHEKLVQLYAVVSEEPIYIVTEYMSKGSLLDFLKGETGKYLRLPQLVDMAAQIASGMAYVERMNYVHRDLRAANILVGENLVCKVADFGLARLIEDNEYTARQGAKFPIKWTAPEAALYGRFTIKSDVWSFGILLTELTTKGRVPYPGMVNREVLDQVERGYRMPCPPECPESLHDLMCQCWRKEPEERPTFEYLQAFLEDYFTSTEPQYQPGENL
Ret(h), sequence (P07949 29-1114): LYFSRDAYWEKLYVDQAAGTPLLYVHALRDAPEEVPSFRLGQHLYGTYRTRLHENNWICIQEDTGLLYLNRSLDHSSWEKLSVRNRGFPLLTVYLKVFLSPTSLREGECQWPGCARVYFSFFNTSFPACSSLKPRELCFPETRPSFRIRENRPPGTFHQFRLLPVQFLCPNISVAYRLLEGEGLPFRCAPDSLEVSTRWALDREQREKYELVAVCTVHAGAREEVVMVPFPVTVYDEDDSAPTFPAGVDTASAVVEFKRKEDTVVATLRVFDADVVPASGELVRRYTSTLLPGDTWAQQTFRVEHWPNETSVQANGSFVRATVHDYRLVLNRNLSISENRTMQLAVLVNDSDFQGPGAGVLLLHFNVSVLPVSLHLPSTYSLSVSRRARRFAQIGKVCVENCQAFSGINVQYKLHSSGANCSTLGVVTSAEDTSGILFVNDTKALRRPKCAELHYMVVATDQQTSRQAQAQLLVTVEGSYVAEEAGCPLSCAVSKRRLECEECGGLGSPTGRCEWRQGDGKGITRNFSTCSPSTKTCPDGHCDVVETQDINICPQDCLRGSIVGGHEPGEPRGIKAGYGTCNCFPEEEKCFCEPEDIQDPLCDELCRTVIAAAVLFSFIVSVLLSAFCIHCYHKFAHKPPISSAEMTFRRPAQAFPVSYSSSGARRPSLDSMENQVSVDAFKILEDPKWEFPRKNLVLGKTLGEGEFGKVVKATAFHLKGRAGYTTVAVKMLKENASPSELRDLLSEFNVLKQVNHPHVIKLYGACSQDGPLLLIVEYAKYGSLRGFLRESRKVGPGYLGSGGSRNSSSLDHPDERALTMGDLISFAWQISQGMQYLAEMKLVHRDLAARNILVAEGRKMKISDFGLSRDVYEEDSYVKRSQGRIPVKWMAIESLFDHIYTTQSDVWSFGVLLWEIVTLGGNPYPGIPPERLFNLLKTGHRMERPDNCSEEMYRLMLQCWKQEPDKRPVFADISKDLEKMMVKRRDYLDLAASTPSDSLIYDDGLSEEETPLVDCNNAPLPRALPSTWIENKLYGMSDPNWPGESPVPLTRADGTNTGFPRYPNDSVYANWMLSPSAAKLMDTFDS
KDR(h), sequence (P35968 20-1356): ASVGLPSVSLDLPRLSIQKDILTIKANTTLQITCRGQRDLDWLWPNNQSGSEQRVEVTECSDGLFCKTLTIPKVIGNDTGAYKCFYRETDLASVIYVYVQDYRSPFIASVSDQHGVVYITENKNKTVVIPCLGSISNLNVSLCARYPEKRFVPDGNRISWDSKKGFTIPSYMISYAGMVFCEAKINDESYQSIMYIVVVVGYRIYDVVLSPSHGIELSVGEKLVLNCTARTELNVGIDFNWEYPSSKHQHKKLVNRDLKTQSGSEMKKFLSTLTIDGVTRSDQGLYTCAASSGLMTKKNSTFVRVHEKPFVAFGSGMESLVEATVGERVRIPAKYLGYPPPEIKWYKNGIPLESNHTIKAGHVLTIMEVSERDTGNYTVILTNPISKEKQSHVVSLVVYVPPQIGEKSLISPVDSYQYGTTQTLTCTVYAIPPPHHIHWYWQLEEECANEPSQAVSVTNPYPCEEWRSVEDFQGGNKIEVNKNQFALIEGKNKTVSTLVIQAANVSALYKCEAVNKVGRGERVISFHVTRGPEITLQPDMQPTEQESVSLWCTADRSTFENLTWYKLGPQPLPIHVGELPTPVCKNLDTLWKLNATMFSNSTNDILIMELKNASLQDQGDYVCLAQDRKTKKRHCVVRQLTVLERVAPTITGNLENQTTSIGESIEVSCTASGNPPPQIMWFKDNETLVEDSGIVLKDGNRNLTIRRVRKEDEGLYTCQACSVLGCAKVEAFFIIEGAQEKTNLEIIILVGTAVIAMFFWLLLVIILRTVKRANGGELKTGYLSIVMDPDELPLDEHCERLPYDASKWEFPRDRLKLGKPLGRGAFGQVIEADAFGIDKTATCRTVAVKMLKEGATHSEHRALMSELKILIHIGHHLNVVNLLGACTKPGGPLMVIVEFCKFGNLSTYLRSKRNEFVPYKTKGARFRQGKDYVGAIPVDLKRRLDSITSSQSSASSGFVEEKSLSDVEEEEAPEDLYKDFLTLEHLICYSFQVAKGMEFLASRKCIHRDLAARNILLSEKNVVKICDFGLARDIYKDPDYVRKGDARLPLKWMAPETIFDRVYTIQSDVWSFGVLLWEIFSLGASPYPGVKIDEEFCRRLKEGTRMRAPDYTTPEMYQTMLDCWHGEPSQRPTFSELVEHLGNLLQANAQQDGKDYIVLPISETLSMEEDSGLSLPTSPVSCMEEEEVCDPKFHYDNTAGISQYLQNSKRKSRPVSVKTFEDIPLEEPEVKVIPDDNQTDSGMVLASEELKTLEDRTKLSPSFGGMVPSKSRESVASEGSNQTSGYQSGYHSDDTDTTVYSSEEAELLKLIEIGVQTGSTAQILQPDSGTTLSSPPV

SMILES | inhibition at 1 µM (Abl(h)) [%] | IC50 (Abl(h); read-out: IC50 (nM) Abl (h)) [nM] | inhibition at 1 µM (Aurora-A(h)) [%] | IC50 (Aurora-A(h); read-out: IC50 (nM) Auroro-A (h)) [nM] | inhibition at 1 µM (Flt3(h)) [%] | IC50 (Flt3(h); read-out: IC50 (nM) Flt3 (h)) [nM] | inhibition at 1 µM (Ret(h)) [%] | IC50 (Ret(h); read-out: IC50 (nM) Ret (h)) [nM] | inhibition at 1 µM (cSRC(h)) [%] | IC50 (cSRC(h); read-out: IC50 (nM) cSrc (h)) [nM] | inhibition at 1 µM (KDR(h)) [%] | GI50 (K562) [nM] | GI50 (KU812) [nM] | GI50 (MV4.11) [nM] | GI50 (RS4.11) [nM] | anti-tumor effect [1]
Cc1cc2c(F)c(Oc3nc(Nc4cc(C5CC5)[nH]n4)cc(N4CCN(CCO)CC4)n3)ccc2[nH]1 [Compound 12] | 112 | 0.5 | 100 | 2 | 100 | 0.3 | 101 | 1 | 100 | 2 | 96 | 0.28 | 0.27 | 0.41 | 3.22 | strong anti-tumor effect
C/C=C/c1cc(Nc2cc(N3CCC(OC)CC3)nc(Oc3cc(F)c4[nH]c(C)cc4c3F)n2)n[nH]1 [Compound 96] | 110 |  | 98 |  | 99 |  | 102 |  | 101 |  | 95 |  |  |  |  | 
C/C=C/c1cc(Nc2cc(N3CCN(S(C)(=O)=O)CC3)nc(Oc3cc(F)c4[nH]c(C)cc4c3F)n2)n[nH]1 [Compound 98] | 111 |  | 98 |  | 100 |  | 102 |  | 100 |  | 96 |  |  |  |  | 
C/C=C/c1cc(Nc2cc(N3CCN(CC)CC3)nc(Oc3cc(F)c4[nH]c(C)cc4c3F)n2)n[nH]1 [Compound 99] | 113 |  | 101 |  | 102 |  | 102 |  | 103 |  | 91 |  |  |  |  | 
CCN1CCN(c2cc(Nc3cc(C)[nH]n3)nc(Oc3cc(F)c4[nH]c(C)cc4c3F)n2)CC1 [Compound 103] | 113 |  | 97 |  | 99 |  | 101 |  | 96 |  | 91 |  |  |  |  | 
Cc1cc(Nc2cc(N3CCN(CCO)CC3)nc(Oc3cc(F)c4[nH]c(C)cc4c3F)n2)n[nH]1 [Compound 105] | 112 |  | 98 |  | 99 |  | 101 |  | 96 |  | 91 |  |  |  |  | 
Cc1cc(Nc2cc(N3CCNCC3)nc(Oc3cc(F)c4[nH]c(C)cc4c3F)n2)n[nH]1 [Compound 106] | 109 |  | 97 |  | 99 |  | 98 |  | 98 |  | 95 |  |  |  |  | 
Cc1cc(Nc2cc(N3CCOCC3)nc(Oc3cc(F)c4[nH]c(C)cc4c3F)n2)n[nH]1 [Compound 107] | 111 |  | 95 |  | 98 |  | 99 |  | 96 |  | 90 |  |  |  |  | 
C/C=C/c1cc(Nc2cc(N3CCN(C)CC3)nc(Oc3ccc4[nH]c(C)cc4c3Cl)n2)n[nH]1 [Compound 112] | 113 |  | 100 |  | 102 |  | 102 |  | 104 |  | 91 |  |  |  |  | 
C/C=C/c1cc(Nc2cc(N3CCN(C)CC3)nc(Oc3ccc4c(cc(C)n4C)c3F)n2)n[nH]1 [Compound 120] | 115 |  | 101 |  | 101 |  | 101 |  | 104 |  | 91 |  |  |  |  | 
C/C=C/c1cc(Nc2cc(N3CCOCC3)nc(Oc3ccc4c(cc(C)n4C)c3F)n2)n[nH]1 [Compound 121] | 116 |  | 91 |  | 102 |  | 102 |  | 104 |  | 92 |  |  |  |  | 
Cc1cc2c(F)c(Oc3nc(Nc4cc(C5CC5)[nH]n4)cc(N4CCN(C)CC4)n3)ccc2n1C [Compound 122] | 109 |  | 101 |  | 102 |  | 101 |  | 104 |  | 91 |  |  |  |  | 
Cc1cc2c(F)c(Oc3nc(Nc4cc(C5CC5)[nH]n4)cc(N4CCOCC4)n3)ccc2n1C [Compound 123] | 114 |  | 100 |  | 101 |  | 102 |  | 104 |  | 88 |  |  |  |  | 
